Values of other authors as cited in PMC11822664, “First‐In‐Human Dose Finding Study of Venadaparib (IDX‐1197), a Potent and Selective PARP Inhibitor, in Patients With Advanced Solid Tumors” (Cancer Medicine, 2025).

How the values were obtained:
[1] = tested on: patients with advanced ovarian cancer; conditions: cited from earlier work
PARP = conditions: olaparib phase I trial ref 22; cited from earlier work
[2] = advanced ovarian cancer with ≥ 2 prior systemic treatments ref 33

O=C(c1cc(Cc2n[nH]c(=O)c3ccccc23)ccc1F)N1CCN(C(=O)C2CC2)CC1 [olaparib]
Anemia incidence ([1]; advanced ovarian cancer ref 33): 46% | Neutropenia incidence ([1]; advanced ovarian cancer ref 33): 24% | Nausea incidence [1, 2]: approximately 76% | Vomiting incidence [1, 2]: ~40% | Dose from which clinical benefit started (PARP): ≥ 100 mg twice daily (BID)
